From US11834453B2, “Substituted pyrimido[5,4-d]pyrimidines as HER2 inhibitors” (Array BioPharma Inc., priority 2020, dated 2023)
pIC50: −log10 of the molar value. Like-named read-outs stand apart in the source and are kept apart here.

Experiments:
ErbB2 WT = ErbB2 WT (Homo sapiens (Human), UniProt P04626); test: ErbB enzyme assay (CisBio HTRF KinEASE-TK), Assay 2; assay type: biochemical
Procedure: Compound potencies were determined using CisBio's HTRF Kinease-TK assay technology. The kinases were incubated with 250 nM TK-substrate biotin (CisBio, part of cat #62TK0PEC) at 1 mM ATP along with test compounds in a buffer consisting of 25 mM HEPES, pH 7.4, 10 mM MgCl2, 0.01% Triton X-100, and 2% DMSO in a volume of 8 μL. […] After 30-minute incubation at 22° C., the reaction was quenched by adding 8 μL of quench solution containing 62.5 nM Sa-XL665 and 0.25× TK-Ab-Cryptate in HTRF detection buffer (all from CisBio, part of cat #62TK0PEC). After a 1-hour incubation at 22° C., the extent of reaction was determined using a PerkinElmer EnVision multimode plate reader via HTRF dual wavelength detection, and the percent of control (POC) was calculated using a ratiometric emission factor. One hundred POC was determined using DMSO only samples (no compound present), and 0 POC was determined using pre-quenched control reactions.
(§1) Enzyme lots and concentration used are in Table 2.

[1] = molecular target: ErbB2 with Exon 20 YVMA insertion (HER2-YVMA) (Homo sapiens (Human), UniProt P04626, INS775YVMA); test: Cellular phosphorylation assay, constitutive ErbB2 phosphorylation (Y1196) in engineered NIH 3T3 cells, Assay 4; assay type: cell-based
Sequence of ErbB2 with Exon 20 YVMA insertion (HER2-YVMA) (P04626 other isoform, or with tags, fused parts or gaps ins YVMA behind 775): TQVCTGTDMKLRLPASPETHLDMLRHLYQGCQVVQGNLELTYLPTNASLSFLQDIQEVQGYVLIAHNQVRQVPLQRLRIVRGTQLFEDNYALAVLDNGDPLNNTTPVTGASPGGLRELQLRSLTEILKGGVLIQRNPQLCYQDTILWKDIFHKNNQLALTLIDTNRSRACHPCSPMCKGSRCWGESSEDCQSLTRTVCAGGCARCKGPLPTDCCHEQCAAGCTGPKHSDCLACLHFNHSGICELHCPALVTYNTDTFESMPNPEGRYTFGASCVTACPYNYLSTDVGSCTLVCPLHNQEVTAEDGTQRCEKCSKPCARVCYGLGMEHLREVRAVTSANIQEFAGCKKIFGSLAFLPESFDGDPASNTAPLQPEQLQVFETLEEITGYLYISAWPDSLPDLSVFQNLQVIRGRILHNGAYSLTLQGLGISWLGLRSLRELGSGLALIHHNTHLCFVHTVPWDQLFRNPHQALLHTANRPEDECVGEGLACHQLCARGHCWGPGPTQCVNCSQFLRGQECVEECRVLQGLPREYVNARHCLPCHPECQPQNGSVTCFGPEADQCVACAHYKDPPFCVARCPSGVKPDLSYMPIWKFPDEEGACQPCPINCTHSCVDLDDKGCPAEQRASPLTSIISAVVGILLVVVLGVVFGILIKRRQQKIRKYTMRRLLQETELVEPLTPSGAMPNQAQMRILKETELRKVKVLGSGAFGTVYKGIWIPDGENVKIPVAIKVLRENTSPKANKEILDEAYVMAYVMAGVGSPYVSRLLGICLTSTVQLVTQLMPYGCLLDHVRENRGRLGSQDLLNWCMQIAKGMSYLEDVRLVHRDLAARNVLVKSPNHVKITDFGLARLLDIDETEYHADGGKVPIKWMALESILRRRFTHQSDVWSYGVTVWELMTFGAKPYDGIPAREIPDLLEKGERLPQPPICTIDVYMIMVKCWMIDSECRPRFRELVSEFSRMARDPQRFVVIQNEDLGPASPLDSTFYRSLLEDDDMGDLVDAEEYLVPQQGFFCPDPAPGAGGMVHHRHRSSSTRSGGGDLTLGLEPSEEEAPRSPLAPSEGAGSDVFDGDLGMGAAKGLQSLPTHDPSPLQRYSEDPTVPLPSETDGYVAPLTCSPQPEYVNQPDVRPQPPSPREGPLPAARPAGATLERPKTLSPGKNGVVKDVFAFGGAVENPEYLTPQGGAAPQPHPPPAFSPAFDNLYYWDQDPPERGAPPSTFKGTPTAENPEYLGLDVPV
Procedure: Serially diluted compounds were added to the plates for 1 hour at 37° C./5% CO2. EGFR WT cells were stimulated with 100 ng/ml rEGF for an additional 10 minutes at 37° C./5% CO2. After compound incubation, medium was removed from the cells, which were then fixed in 3.7% formaldehyde in PBS at room temperature for 20 minutes. Following a wash with PBS, cells were permeabilized with 100% methanol at room temperature for 10 minutes. Cells were then washed with PBS/0.05% Tween-20 and blocked with Odyssey blocking buffer (LI-COR Biosciences) for at least 1 hour at room temperature. Antibodies to phosphorylated ErbB2 (Y1196, Cell Signaling #6942) or phosphorylated EGFR (Y1068, Cell Signaling #3777) and GAPDH (Millipore #MAB374) were added to the cells in blocking buffer containing 0.05% azide and incubated overnight at 4° C. After washing with PBS/0.05° i° Tween-20, the cells were incubated with fluorescently labeled secondary anti-rabbit antibody (LiCOR, IRDye 800CW #926-32211) and anti-mouse antibody (Molecular Probes, Alexa Fluor 680 #A21058) for 1 hour at room temperature in the dark. Cells were then washed and analyzed for fluorescence at both wavelengths using the Odyssey Infrared Imaging System (LI-COR Biosciences). Phosphorylated ErbB2 and EGFR signal was normalized to GAPDH signal to generate curves and calculate IC50 values.

[2] = molecular target: ErbB2 insYVMA (HER2-YVMA, SEQ ID NO: 2) (Homo sapiens, UniProt P04626, INS775YVMA/P1170A); test: biochemical; conditions: ErbB2 insYVMA enzyme assay; for pIC50: read-out: Assay 1 IC50
Sequence of ErbB2 insYVMA (HER2-YVMA, SEQ ID NO: 2) (P04626 with tags, fused parts or gaps INS775YVMA/P1170A limits assumed): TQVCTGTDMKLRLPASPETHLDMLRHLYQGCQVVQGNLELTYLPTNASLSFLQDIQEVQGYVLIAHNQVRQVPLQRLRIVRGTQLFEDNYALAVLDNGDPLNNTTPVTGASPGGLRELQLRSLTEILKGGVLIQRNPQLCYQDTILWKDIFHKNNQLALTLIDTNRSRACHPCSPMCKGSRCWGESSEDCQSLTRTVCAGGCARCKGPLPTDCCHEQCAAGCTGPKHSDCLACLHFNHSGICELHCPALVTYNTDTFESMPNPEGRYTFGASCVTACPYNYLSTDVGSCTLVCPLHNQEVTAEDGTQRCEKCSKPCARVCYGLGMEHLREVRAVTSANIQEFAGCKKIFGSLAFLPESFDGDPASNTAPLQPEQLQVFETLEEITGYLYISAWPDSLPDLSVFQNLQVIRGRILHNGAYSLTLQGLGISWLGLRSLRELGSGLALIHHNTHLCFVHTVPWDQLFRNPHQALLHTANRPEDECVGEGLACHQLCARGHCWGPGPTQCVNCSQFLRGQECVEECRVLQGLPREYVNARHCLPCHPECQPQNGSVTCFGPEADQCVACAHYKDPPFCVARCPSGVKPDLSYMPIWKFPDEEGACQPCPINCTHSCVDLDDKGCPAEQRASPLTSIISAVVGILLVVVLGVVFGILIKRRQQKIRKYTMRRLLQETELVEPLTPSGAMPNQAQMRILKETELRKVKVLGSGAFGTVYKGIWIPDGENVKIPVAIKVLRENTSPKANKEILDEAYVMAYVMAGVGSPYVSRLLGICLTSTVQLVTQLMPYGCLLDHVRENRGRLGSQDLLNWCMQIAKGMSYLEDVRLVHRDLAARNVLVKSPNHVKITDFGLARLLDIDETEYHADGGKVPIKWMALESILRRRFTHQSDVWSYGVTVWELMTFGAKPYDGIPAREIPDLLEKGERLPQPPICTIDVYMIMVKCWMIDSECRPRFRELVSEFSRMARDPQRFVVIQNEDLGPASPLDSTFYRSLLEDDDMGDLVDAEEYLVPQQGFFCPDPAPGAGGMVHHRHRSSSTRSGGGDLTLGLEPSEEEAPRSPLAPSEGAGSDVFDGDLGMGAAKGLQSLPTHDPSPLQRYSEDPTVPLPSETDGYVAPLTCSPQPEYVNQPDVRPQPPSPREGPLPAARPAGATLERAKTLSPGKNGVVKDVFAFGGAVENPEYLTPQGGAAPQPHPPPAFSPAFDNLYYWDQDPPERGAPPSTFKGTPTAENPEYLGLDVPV

EGFR = EGFR (Homo sapiens (Human), UniProt P00533); test: ErbB enzyme assay (CisBio HTRF KinEASE-TK), Assay 3; assay type: biochemical
Sequence of EGFR (P00533 25-1210): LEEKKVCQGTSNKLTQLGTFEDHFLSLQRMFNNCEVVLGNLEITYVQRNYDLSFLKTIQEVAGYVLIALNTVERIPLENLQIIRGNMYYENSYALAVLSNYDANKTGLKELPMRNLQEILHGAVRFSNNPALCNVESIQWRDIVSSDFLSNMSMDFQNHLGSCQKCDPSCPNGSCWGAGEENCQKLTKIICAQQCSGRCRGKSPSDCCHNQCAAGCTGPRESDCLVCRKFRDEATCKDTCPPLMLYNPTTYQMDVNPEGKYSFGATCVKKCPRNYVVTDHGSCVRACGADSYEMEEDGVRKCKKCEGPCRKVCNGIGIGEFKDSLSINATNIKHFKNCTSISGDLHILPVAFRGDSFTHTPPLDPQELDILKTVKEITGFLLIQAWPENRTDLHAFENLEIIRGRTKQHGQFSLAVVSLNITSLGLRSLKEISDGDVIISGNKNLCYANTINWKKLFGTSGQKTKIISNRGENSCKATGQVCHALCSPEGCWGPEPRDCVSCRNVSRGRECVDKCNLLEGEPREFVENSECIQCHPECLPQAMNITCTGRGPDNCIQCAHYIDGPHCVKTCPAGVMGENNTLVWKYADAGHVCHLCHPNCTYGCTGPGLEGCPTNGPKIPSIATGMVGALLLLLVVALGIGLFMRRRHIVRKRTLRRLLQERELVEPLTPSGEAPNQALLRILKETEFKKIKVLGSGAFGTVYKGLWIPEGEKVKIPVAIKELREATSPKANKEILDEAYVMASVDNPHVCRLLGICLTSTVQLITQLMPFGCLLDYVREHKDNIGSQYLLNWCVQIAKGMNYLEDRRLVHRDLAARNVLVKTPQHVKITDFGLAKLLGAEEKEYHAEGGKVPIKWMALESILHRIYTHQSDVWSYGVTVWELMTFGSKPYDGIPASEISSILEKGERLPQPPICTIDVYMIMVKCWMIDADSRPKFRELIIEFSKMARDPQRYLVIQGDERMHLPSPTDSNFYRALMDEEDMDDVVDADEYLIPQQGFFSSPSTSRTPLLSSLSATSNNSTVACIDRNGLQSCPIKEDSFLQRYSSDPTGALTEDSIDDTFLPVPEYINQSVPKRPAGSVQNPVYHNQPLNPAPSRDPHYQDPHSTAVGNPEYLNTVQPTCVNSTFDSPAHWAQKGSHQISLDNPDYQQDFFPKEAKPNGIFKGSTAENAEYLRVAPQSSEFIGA
Procedure: Compound potencies were determined using CisBio's HTRF Kinease-TK assay technology. The kinases were incubated with 250 nM TK-substrate biotin (CisBio, part of cat #62TK0PEC) at 1 mM ATP along with test compounds in a buffer consisting of 25 mM HEPES, pH 7.4, 10 mM MgCl2, 0.01% Triton X-100, and 2% DMSO in a volume of 8 μL. Compounds were prepared as a three-fold serial dilution in DMSO and added to the assay to give the appropriate final concentration. After 30-minute incubation at 22° C., the reaction was quenched by adding 8 μL of quench solution containing 62.5 nM Sa-XL665 and 0.25× TK-Ab-Cryptate in HTRF detection buffer (all from CisBio, part of cat #62TK0PEC). After a 1-hour incubation at 22° C., the extent of reaction was determined using a PerkinElmer EnVision multimode plate reader via HTRF dual wavelength detection, and the percent of control (POC) was calculated using a ratiometric emission factor. One hundred POC was determined using DMSO only samples (no compound present), and 0 POC was determined using pre-quenched control reactions. A 4-parameter logistic curve was fit to the POC values as a function of the concentration of compound, and the IC50 value was the point where the best-fit curve crossed 50 POC.
as §1

EGFR wild type (EGFR WT) = EGFR wild type (EGFR WT) (Homo sapiens (Human), UniProt P00533); test: Cellular phosphorylation assay, EGF-stimulated EGFR phosphorylation in engineered NIH 3T3 cells, Phospho-EGFR DuoSet IC ELISA, Assay 5; assay type: cell-based
Sequence of EGFR wild type (EGFR WT) (P00533 25-1210): as above
Procedure: NIH 3T3 cells were engineered to express EGFR wild type (EGFR WT; Assay 5, no footnote) with constructs obtained from GenScript and grown in DMEM supplemented with 10% fetal bovine serum and 15 μg/ml blasticidin. Cells were plated in 96-well plates at 20,000 cells/well and allowed to attach overnight at 37° C./5% CO2. Serially diluted compounds were added to the plates for 1 hour at 37° C./5% CO2. EGFR WT cells were stimulated with 100 ng/ml rEGF for an additional 10 minutes at 37° C./5% CO2. After compound incubation, medium was removed from the cells, which were then lysed in 100 μL/well lysis buffer according to the manufacturer's protocol (R&D Systems, DYC1095, Human Phospho-EGFR DuoSet IC ELISA). Same protocol was followed to determine the total levels of phospho-EGFR by measuring the optical density of each well using a VersaMax microplate reader. Curves were then generated and IC50 values calculated.

`Cc1cc(Nc2ncnc3cnc(N4CCC[C@@]45CCOC5)nc23)ccc1Oc1ccc2c(c1)ncn2C` (racemic) [Example 115, rac-(R)—N-(3-methyl-4-((1-methyl-1H-benzo[d]imidazol-5-yl)oxy)phenyl)-6-(7-oxa-1-azaspiro[4.4]nonan-1-yl)pyrimido[5,4-d]pyrimidin-4-amine] gave a pIC50 (ErbB2 WT) of 7.25, a pIC50 [1] of 7.81 and a pIC50 [2] of 7.28. The pIC50 (EGFR) was 5.66 and the pIC50 (EGFR wild type (EGFR WT)) was ≤ 5.30.

With `Cc1cc(Nc2ncnc3cnc(N4CC[C@]45CCOC5)nc23)ccc1Oc1ccc2c(c1)ncn2C` (single isomer, unassigned) [Example 93b] the pIC50 (ErbB2 WT) was 7.94, the pIC50 [1] was 7.86 and the pIC50 [2] was 7.79. The pIC50 (EGFR) was 5.87 and the pIC50 (EGFR wild type (EGFR WT)) was ≤ 5.30.

With `CCOc1ncc2ncnc(Nc3ccc(Oc4ccc5c(c4)ncn5C)c(C)c3)c2n1` [Example 13, 6-ethoxy-N-(3-methyl-4-((1-methyl-1H-benzo[d]imidazol-5-yl)oxy)phenyl)pyrimido[5,4-d]pyrimidin-4-amine] the pIC50 [1] was 6.53, the pIC50 [2] was 7.45 and the pIC50 (EGFR) was ≤ 5.00. For the same compound, the pIC50 (EGFR wild type (EGFR WT)) was ≤ 5.30.

Compound `Cc1cc(Nc2ncnc3cnc(N4CCC5(CCOC5)C4)nc23)ccc1Oc1ccc2c(c1)ncn2C` (stereo not shown) [Example 15, N-(3-methyl-4-((1-methyl-1H-benzo[d]imidazol-5-yl)oxy)phenyl)-6-(2-oxa-7-azaspiro[4.4]nonan-7-yl)pyrimido[5,4-d]pyrimidin-4-amine] has a pIC50 (ErbB2 WT) of 7.29, a pIC50 [1] of 7.63 and a pIC50 [2] of 7.67. The pIC50 (EGFR) was ≤ 5.00 and the pIC50 (EGFR wild type (EGFR WT)) was ≤ 5.30.

`CON(C)c1ncc2ncnc(Nc3ccc(Oc4ccc5c(c4)ncn5C)c(C)c3)c2n1` [Example 22, 6-(methoxy(methyl)amino)-N-(3-methyl-4-((1-methyl-1H-benzo[d]imidazol-5-yl)oxy)phenyl)pyrimido[5,4-d]pyrimidin-4-amine] was tested, and the pIC50 (ErbB2 WT) was 7.28, the pIC50 [1] was 7.89 and the pIC50 [2] was 7.59. For the same compound, the pIC50 (EGFR) was 5.06 and the pIC50 (EGFR wild type (EGFR WT)) was ≤ 5.30.

Work on `Cc1cc(Nc2ncnc3cnc(N4CC5(COC5)C4)nc23)ccc1Oc1ccc2c(c1)ncn2C` [Example 26, N-(3-methyl-4-((1-methyl-1H-benzo[d]imidazol-5-yl)oxy)phenyl)-6-(2-oxa-6-azaspiro[3.3]heptan-6-yl)pyrimido[5,4-d]pyrimidin-4-amine] yielded a pIC50 (ErbB2 WT) of 6.30, a pIC50 [1] of 7.21 and a pIC50 [2] of 7.07. The pIC50 (EGFR) was ≤ 5.00 and the pIC50 (EGFR wild type (EGFR WT)) was ≤ 5.30.

With `Cc1cc(Nc2ncnc3cnc(N4CCC45COC5)nc23)ccc1Oc1ccc2c(c1)ncn2C` [Example 27, N-(3-methyl-4-((1-methyl-1H-benzo[d]imidazol-5-yl)oxy)phenyl)-6-(6-oxa-1-azaspiro[3.3]heptan-1-yl)pyrimido[5,4-d]pyrimidin-4-amine] the pIC50 (ErbB2 WT) was 7.29, the pIC50 [1] was 8.03 and the pIC50 [2] was 7.70. For the same compound, the pIC50 (EGFR) was ≤ 5.00 and the pIC50 (EGFR wild type (EGFR WT)) was ≤ 5.30.

In the case of `Cc1cc(Nc2ncnc3cnc(N4CCN(C)S4(=O)=O)nc23)ccc1Oc1ccc2c(c1)ncn2C` [Example 29, 2-methyl-5-(8-((3-methyl-4-((1-methyl-1H-benzo[d]imidazol-5-yl)oxy)phenyl)amino)pyrimido[5,4-d]pyrimidin-2-yl)-1,2,5-thiadiazolidine 1,1-dioxide], the pIC50 (ErbB2 WT) was 7.18, the pIC50 [1] was 7.69 and the pIC50 [2] was 7.42. For the same compound, the pIC50 (EGFR) was ≤ 5.00 and the pIC50 (EGFR wild type (EGFR WT)) was ≤ 5.30.

`Cc1cc(Nc2ncnc3cnc(NC4CC(F)(F)C4)nc23)ccc1Oc1ccc2c(c1)ncn2C` [Example 30, N2-(3,3-difluorocyclobutyl)-N8-(3-methyl-4-((1-methyl-1H-benzo[d]imidazol-5-yl)oxy)phenyl)pyrimido[5,4-d]pyrimidine-2,8-diamine] gave a pIC50 (ErbB2 WT) of 6.71, a pIC50 [1] of 6.78 and a pIC50 [2] of 6.98. The pIC50 (EGFR) was ≤ 5.00 and the pIC50 (EGFR wild type (EGFR WT)) was ≤ 5.30.

Work on `Cc1cc(Nc2ncnc3cnc(N4CC(F)(F)C4)nc23)ccc1Oc1ccc2c(c1)ncn2C` [Example 38, 6-(3,3-difluoroazetidin-1-yl)-N-(3-methyl-4-((1-methyl-1H-benzo[d]imidazol-5-yl)oxy)phenyl)pyrimido[5,4-d]pyrimidin-4-amine] yielded a pIC50 (ErbB2 WT) of 6.39, a pIC50 [1] of 7.19 and a pIC50 [2] of 6.74. For the same compound, the pIC50 (EGFR) was ≤ 5.00 and the pIC50 (EGFR wild type (EGFR WT)) was ≤ 5.30.

`Cc1ncc(-c2ncc3ncnc(Nc4ccc(Oc5ccc6c(c5)ncn6C)c(C)c4)c3n2)s1` [Example 42, N-(3-methyl-4-((1-methyl-1H-benzo[d]imidazol-5-yl)oxy)phenyl)-6-(2-methylthiazol-5-yl)pyrimido[5,4-d]pyrimidin-4-amine] gave a pIC50 (ErbB2 WT) of 6.76, a pIC50 [1] of 7.77 and a pIC50 [2] of 7.24. For the same compound, the pIC50 (EGFR) was ≤ 5.00 and the pIC50 (EGFR wild type (EGFR WT)) was ≤ 5.30.

In the case of `Cc1cc(Nc2ncnc3cnc(N4C[C@H]5CC[C@@H]4CO5)nc23)ccc1Oc1ccn2ncnc2c1` [Example 127, N-(4-([1,2,4]triazolo[1,5-a]pyridin-7-yloxy)-3-methylphenyl)-6-((1R,4R)-2-oxa-5-azabicyclo[2.2.2]octan-5-yl)pyrimido[5,4-d]pyrimidin-4-amine], the pIC50 [1] was 6.82, the pIC50 [2] was 7.39 and the pIC50 (EGFR) was ≤ 5.00. The pIC50 (EGFR wild type (EGFR WT)) was ≤ 5.30.

With `Cc1cc(Nc2ncnc3cnc(N4CCC(S(C)(=O)=O)CC4)nc23)ccc1Oc1ccc2c(c1)ncn2C` [Example 224] the pIC50 (EGFR) was ≤ 5.00 and the pIC50 (EGFR wild type (EGFR WT)) was ≤ 5.30.

In the case of `Cc1cc(Nc2ncnc3cnc(N4CC[C@](C)(O)C4)nc23)ccc1Oc1ccc2c(c1)ncn2C` [Example 294], the pIC50 (EGFR wild type (EGFR WT)) was ≤ 5.30.

`Cc1c(Oc2ccc3c(c2)ncn3C)ccc(Nc2ncnc3cnc(N4CC[C@](C)(O)C4)nc23)c1F` [Example 310] was tested, and the pIC50 (EGFR wild type (EGFR WT)) was ≤ 5.30.

`Cc1c(Oc2ccn3ncnc3c2)ccc(Nc2ncnc3cnc(N4C[C@@H]5C[C@H]4CO5)nc23)c1F` [Example 313] was tested, and the pIC50 [1] was 5.75, the pIC50 (EGFR) was 5.38 and the pIC50 (EGFR wild type (EGFR WT)) was ≤ 5.30.

`Cc1cc(Nc2ncnc3cnc(N4CC(C(C)(C)O)C4)nc23)ccc1Oc1ccn2ncnc2c1` [Example 343] was tested, and the pIC50 (ErbB2 WT) was 6.92, the pIC50 [1] was 5.83 and the pIC50 [2] was 6.95. The pIC50 (EGFR wild type (EGFR WT)) was ≤ 5.30.

`Cc1cc(Nc2ncnc3cnc(N4CCO[C@]5(CCOC5)C4)nc23)ccc1Oc1ccc2c(c1)ncn2C` [Example 357] was tested, and the pIC50 (EGFR) was ≤ 5.00 and the pIC50 (EGFR wild type (EGFR WT)) was ≤ 5.30.

Compound `C[C@@H]1CN(c2ncc3ncnc(Nc4ccc(Oc5ccc6c(c5)ncn6C)c(Cl)c4)c3n2)CCN1C` [Example 439] has a pIC50 (ErbB2 WT) of 7.15, a pIC50 [1] of 7.34 and an IC50 ([2]; Assay 1 IC50 (nM)) of 38.7 nM. The pIC50 (EGFR wild type (EGFR WT)) was ≤ 5.30.

For `Cc1cc(Nc2ncnc3cnc(N4CCC5COCC54)nc23)ccc1Oc1ccc2c(c1)ncn2C` (stereo not shown) [Example 472], the pIC50 (EGFR wild type (EGFR WT)) was ≤ 5.30.

For `Cc1cc(Nc2ncnc3cnc(N(C)[C@@H]4CCCOC4)nc23)ccc1Oc1ccc2c(c1)ncn2C` [Example 473], the pIC50 [1] was 8.24, the pIC50 (EGFR) was 5.82 and the pIC50 (EGFR wild type (EGFR WT)) was ≤ 5.30.
